Literature values, collected in publication PMC12443862, “The second life of Citrus bergamia: bioavailability analysis of a new formulation using waste-based microencapsulation as a valuable source of bioactive compounds” (Pharmacological Reports, 2025).

Design: method as in PMID 25200135
Conditions: hesperidin micronization (5.1 μm)

COc1ccc([C@@H]2CC(=O)c3c(O)cc(O[C@@H]4O[C@H](CO[C@@H]5O[C@@H](C)[C@H](O)[C@@H](O)[C@H]5O)[C@@H](O)[C@H](O)[C@H]4O)cc3O2)cc1O [hesperidin]
Increase of flavanone's bioavailability compared to conventional hesperidin (32.8 μm): 2 fold
